Results reported in patent US20260014132A1, “PROTEASE ACTIVATED RECEPTOR 2 (PAR2) INHIBITOR AND ITS USES” (UNIVERSITÀ DEGLI STUDI DI PADOVA, priority 2022, published 2026).

Key:
[1] = test system: PAR2; assay: PAR2 mRNA expression (qPCR) in LPS-stimulated THP-1 cells; type: cell-based, human
Protocol: (§1) In order to evaluate the effect of 1-Piperidin Propionic acid on the transcriptional activity of the membrane receptor Protease Activated Receptor-2 (PAR2), monocyte-derived cell line THP-1 was used. The cells were incubated with LPS, known to induce PAR2 expression in this cell compartment, at a concentration of 1 ng/ml, or with medium alone, as a control, for 2 hours with 1-PPA at a concentration of 1 ng/ml and 100 ng/ml. In further experiments transfected HepG2 cells were used transiently with plasmid containing the human PAR2 sequence by Lipofectamy. These cells were incubated with medium alone, as a control, or with increasing concentrations of 1-PPA, as described above. Cell extracts from both lines were then subjected to extraction of cellular RNA which was reverse transcribed into cDNA and amplified by qPCR.
(§2) Similar results were also obtained in transfected HepG2 cells transiently to overexpress PAR2.

[2] = test system: PAR2; assay: PAR2 mRNA expression (qPCR) in HepG2 cells transiently transfected to overexpress PAR2; type: cell-based, human
Protocol: as §1, §2

[3] = test system: PAR2; assay: Cellular Thermal Shift Assay (CETSA) and Western blot in lysates of HepG2 cells overexpressing PAR2; type: binding, human; conditions: soluble fraction of extracts of HepG2 overexpressing PAR2, progressive increase in temperature
Description: These interaction data between 1-PPA and PAR2 were also confirmed at the protein level, using the cellular thermal shift assay (CETSA) (Science 341 (6141): 84-87). This is a biophysical assay based on the principle of ligand-induced thermal stabilization of target proteins, as the melting temperature of proteins changes according to the interaction of the ligand.
This conformation was identified as level class 0, which is the highest scoring and most reliable analysis. […] In particular, HepG2 cells have been genetically modified to overexpress transiently PAR 2 using cDNA as expression plasmid 3.1. The soluble fraction of the cell extracts was then subjected to the CETSA test, in the presence or absence of 1-PPA, according to the protocol. The samples were also studied by Wester blot using an anti HA-tag PAR 2 monoclonal antibody.

[4] = test system: TNF-α; assay: LPS-induced TNF-α transcriptional expression in THP-1 cells (RT-PCR); type: cell-based, human
Protocol: (§3) Given that PAR2 is deeply implicated in the induction of proinflammatory cytokines, the ability of PPA in the inhibition of proinflammatory cytokines in a context simulating bacterial sepsis was evaluated. In FIGS. 3A and 3B the THP-1 cell line of monocytic origin was used, incubated with LPS ([…]), which in example 1 had induced an increase in the synthesis of endogenous PAR2. Cells were simultaneously treated with 1-PPA at a concentration of 1 ng/ml or 100 ng/ml or medium alone as control and incubated for 1 or 4 hours. The cell extracts were used to analyze the transcriptional expression of the cytokines TNF-α and IL-1β by RT-PCR.

[5] = test system: IL-1β; assay: LPS-induced IL-1β transcriptional expression in THP-1 cells (RT-PCR); type: cell-based, human
Protocol: as §3

[6] = test system: platelet aggregation; assay: Platelet aggregation, TRAP test, Multiplate analyzer, whole blood; type: cell-based; conditions: TRAP-6, increasing concentrations of 1-PPA
Description: The analysis of platelet function can be performed by the Multiplate® analyzer (Roche Diagnostics) which is a method based on impedance aggregometry and can be used to measure platelet function in whole blood in the presence or absence of inhibitors. In particular the TRAP test is an assay for the in vitro quantitative determination of platelet function triggered by thrombin receptor activating peptide-6 (TRAP-6) which is a potent platelet activator and stimulates platelet aggregation through the thrombin receptor PAR-1, this peptide has also been found capable of activating PAR2 (Cas #AS-24190-25, CliniScience), which can be activated by thrombin in the presence of thrombomodulin (Heuberger et al, Thrombosis Research 2019, 177:91-101).
Multiplate® Analyzer, Roche Diagnostics) was used, where the blood sample was analyzed alone or in presence of increasing concentrations of 1-PPA.

[7] = test system: gouty arthritis; assay: Mouse model of gouty arthritis (uric acid microcrystals in hind paw); type: in vivo, mice (C57BL6J)
Description: To evaluate the inhibitory capacity of 1-PPA in pain perception, notoriously mediated by PAR2 as a receptor of peripheral nerve endings (Andrea S. Rothmeier & Wolfram Ruf. Semin Immunopathol, 2012; 34:133-149), an experimental model of inflammatory arthritis was used. In particular, a mouse model of gout was used by injecting microcrystals of uric acid subcutaneously into the plantar surface of the hind legs of mice (C57BL6J), followed by injection of 1-PPA at different concentrations in one hind leg, using the contralateral leg as a control. After a few hours, the microcrystal treatment induces swelling and edema at the injection site which reaches a peak of inflammation and pain at 48 hours and then resolves spontaneously.
To evaluate the intensity of pain, the electronic von Frey test was used, which involves recording the intensity of the stimulus that evokes a withdrawal reflex, after the application of the pain stimulus to the plantar surface of the hind leg.

[8] = test system: LPS-induced sepsis; assay: LPS-induced systemic sepsis model in mice; type: in vivo, C57BL/6 J mice; conditions: LPS about 10 mg/kg intraperitoneal
Protocol: In vivo experiments are underway on models of systemic sepsis, in order to validate the protective effect of 1-PPA against the development of cytokine storm and septic shock with multiple organ failure, using C57BL/6 J mice. The first part of the study consists in the induction of sepsis through LPS and experimental treatment with 1-PPA.
The intraperitoneal administration with LPS (about 10 mg/kg, L4130, Sigma-Aldrich) associated with 1-PPA or alternatively with PBS, was carried out under anesthesia (Sevorane at 4% in medical oxygen) through the use of Fluovac (Harvard Instruments), dedicated for the anesthesia of small animals.
The time interval of 8 hours is considered the optimal interval for observing the onset of scientifically quantifiable sepsis in mice, and for evaluating the efficacy of a treatment aimed at inhibiting it by administering 1-PPA.
FIG. 6A illustrates the experimental design and the quantification of the degree of malaise using a score commonly used to determine the condition of the animal, where 0 refers to the normal condition and 5 refers to a pre-terminal condition. A score of 6 was attributed to the death of the animal.

[9] = test system: HepG2 cell line; assay: In vitro toxicity, real-time cell proliferation (XCelligence) in HepG2; type: cell-based
Description: Real-time cell proliferation was monitored using the XCelligence tool (ACEA) and the results were expressed as Cell Index, which expresses the cell number at each point considered.

[10] = In vivo organ damage (liver, kidney) after 26 weeks of 1-PPA; parameters: species or system CC57/BL6 mice; conditions: 0.07 and 0.7 μg/g/week, normal diet, serum
Protocol: The organ damage of the 1-PPA compound in vivo was also evaluated, considering the function of the liver and kidney, the main organs responsible for pharmacological catabolismln detail, the study included 2 groups of CC57/BL6 mice (4 mice/group, age 45 days), inoculated with 1-PPA at concentrations of 0.07 and 0.7 μg/g/week), for a time period of 26 weeks. All animals were fed a normal diet throughout the study. Before starting the 1-PPA inoculation, a basal blood sample was taken from all animals and a second sample was taken from the sacrifice.
At serum level, alanine aminotransferase (ALT) as an indicator of hepatic cytolytic damage, bilirubin as an indicator of hepatic cholestasis, blood urea nitrogen (Blood urea nitrogen, BUN) as an indicator of renal damage were evaluated. The results were expressed as the ratio between the value of the final sampling and that of the basal sampling.

[11] = test system: chronic kidney disease; assay: CKD induced by folic acid and treatment with 1-PPA; type: in vivo, mouse; conditions: FA 125 mg/kg i.p., 1-PPA i.p. 0.1 μg/g from third day, thirtieth day, expected
Protocol: A single intraperitoneal injection of FA (dosage of 125 mg/kg) induces renal damage which reproduces the analogous syndrome in man after 30 days. To ensure maximum precision and least distress for the animal, the 1-PPA inoculation is performed by anesthetizing the mouse for a few minutes using deep inhalation surgical anesthesia using 4% Sevorane in medical oxygen administered through a Fluovac device (Harvard Instruments) specifically dedicated to the anesthesia of laboratory rodents.
Treatment with 1-PPA (i.p. injection at a concentration of 0.1 μg/g of body weight) begins from the third day after the induction of renal damage (groups FA+1-PPA). Control groups are treated with PBS (FA+PBS groups).
Renal function is monitored weekly by semiquantitative evaluation of proteinuria using multistix (Siemens). For urine collection, the […] is placed in a carefully cleaned plexiglass tray, in the presence of dedicated environmental enrichment. After 30 days from the induction of the renal damage the animals are sacrificed by cervical dislocation or excess anesthesia. Peripheral blood is collected by intracardiac puncture, and kidneys and liver are sampled in formalin and at −80° C. for subsequent evaluations of IHC and gene expression. […]

[12] = THP-1, 1-PPA 1 ng/ml or 100 ng/ml, 1 or 4 hours

## O=C(O)CCN1CCCCC1 [1-PPA, 1-Piperidine Propionic Acid]
[1]; THP-1 cells, LPS 1 ng/ml, 2 hours, 1-PPA 1 ng/ml and 100 ng/ml
  PAR2 mRNA expression: marked reduction of its expression
[1]; THP-1 line, PAR2 overexpression conditions
  concentration capable of inhibiting the synthesis of PAR2: 1 ng/mL
[2]; HepG2 line, PAR2 overexpression conditions
  concentration capable of inhibiting the synthesis of PAR2: 1 ng/mL
[2]; HepG2 transiently transfected with human PAR2 plasmid, increasing concentrations of 1-PPA
  PAR2 mRNA expression: effective inhibition of PAR2 mRNA
[3]
  thermal stabilization of PAR2 protein (CETSA): thermal stability of the PAR2 protein
[4]; [12]
  TNF-α transcriptional expression induced by LPS: effectively blocked
[4]; THP-1, LPS
  concentration at which inhibitory effect is achieved: 1 ng/mL
[5]; [12]
  IL-1β transcriptional expression induced by LPS: effectively blocked
[5]; THP-1, LPS
  concentration at which inhibitory effect is achieved: 1 ng/mL
[5]; lowest 1-PPA concentration (1 ng/ml), persisting LPS induction
  control of IL-1β synthesis over time: still more effective in controlling the synthesis
[6]
  platelet aggregation: inhibiting platelet aggregation in a dose-dependent manner
[7]; compared to mice injected only with microcrystals
  stimulus to induce the withdrawal reflex (electronic von Frey test): significantly greater stimulus
[7]; urate microcrystals subcutaneously in plantar surface, 1-PPA injected in hind leg, versus not treated
  paw edema and redness (confirmed by paw circumference): visually less edematous and reddened
[8]; 1-PPA 3 μg, maximum reached
  degree of malaise score (0 normal, 5 pre-terminal, 6 death): ≤ 2
[8]; low concentrations of 1-PPA
  protection from LPS-induced sepsis: protected mice from LPS-induced sepsis
[9]; 5 μg/ml versus biologically effective dose
  non-toxic concentration relative to biologically effective dose: at least 50 times
[9]; HepG2, 5 μg/ml
  cellular toxic effect (Cell Index): did not demonstrate a cellular toxic effect
[10]
  alanine aminotransferase (ALT), ratio final/basal sampling: < 2 ×normal values
  bilirubin, ratio final/basal sampling: < 2 ×normal values
  blood urea nitrogen (BUN), ratio final/basal sampling: < 2 ×normal values
[11]
  mean value of proteinuria measured in the urine: moderate residual damage
